The subject of experiment [1] is advanced soft tissue sarcoma. In words: RMH-SARC retrospective cohort: advanced STS patients treated with pazopanib, PFS, OS and RECIST 1.1 response. The experiment is classed as in vivo, human. The text has this:
Collection and analysis of anonymised archival FFPE tissue and associated clinical data was approved in as a sub-study protocol amendment to the Royal Marsden-sponsored Elucidation of a Molecular signature of Pazopanib Response in Advanced soft tissue Sarcoma including solitary fibrous tumours (EMPRASS) study. (RMH Committee for Clinical Research reference 4107, NHS Research Ethic Committee reference 14/WA/0164). This cohort is referred to as RMH-SARC in this manuscript.
Patients were retrospectively identified for inclusion by search of institutional database and electronic patient records compiled during routine clinical practice. Eligibility criteria for inclusion were: i) histopathological diagnosis of soft tissue tumour as confirmed by contemporaneous report by specialist sarcoma histopathologist; ii) received at least one dose of pazopanib for treatment of unresectable or advanced STS; iii) available FFPE tumour specimen, obtained from patient prior to first dose of pazopanib. Treatment and response monitoring was as per standard institutional practice, with pazopanib at 800 mg once daily until disease progression, intolerable toxicity or significant clinical deterioration. Dose interruption and/or reduction were instigated based on standard institutional guidelines and the discretion of the treating physician. Baseline clinico-pathological characteristics and survival data were collected on retrospective review of contemporaneous electronic medical records. All related radiological imaging was retrospectively reviewed and disease response assessed according to RECIST 1.1. This manuscript is written according to the Reporting Recommendations for Tumor Marker Prognostic Studies (REMARK) guidelines15.
The stepwise primary objectives were to assess whether a surrogate of two immunohistochemical markers (FGFR1 and PDGFRA) and TP53 mutation status had statistical significant prognostic information for advanced STS. In this event, the two biomarkers panel were tested to determine if there is added statistically significant prognostic information to standard clinicopathological variables in multivariable comparisons. The secondary analyses included identification of biological subgroups based on gene expression profiles, and evaluation of the significance of these biological subgroups association with patient outcome. Progression free survival (PFS—defined as time in months from first dose of pazopanib to radiological disease progression or death from any cause) was the primary outcome endpoint, with overall survival (OS—defined as a time in months from first dose of pazopanib to death from any cause) as the secondary outcome endpoint. Data cut-off for survival follow-up was 30 Nov. 2016. Statistical analyses were performed by two senior statisticians. The Kaplan-Meier method was used to estimate PFS and OS, and the log-rank test to compare survival in different strata. Multivariable cox regression model was used to estimate the significance adjusted for the standard clinicopathological variables (including age, tumour grade, performance status and histological subtype). Proportional hazard assumption was tested using Schoenfeld residuals, and where deemed appropriate, Restricted Mean Survival was used. Interaction tests between FGFR1 and PDGFRA expression to predict for survival were evaluated for PFS and OS respectively. Likelihood ratio tests based on proportional hazards regression were used to test the prognostic information of all biomarkers. The quantification of the amount of prognostic information provided by one biomarker was assessed by the likelihood ratio χ^2 value (LRχ^2), and the additional information of one biomarker to biomarker score was measured by the increase of the likelihood ratio χ^2 value (ΔLRχ^2) obtained from the proportional hazards model.
Patients were identified by retrospective search of prospectively compiled institutional database and electronic patient records. […]

In another experiment the test system is STS subtypes. To be noted: randomised phase II trial; cited from earlier work.
A further experiment relates to advanced STS. The following applies: 1st line, in combination with doxorubicin; cited from earlier work.
[2] abbreviates: F-Lo/P-Hi (FGFR1-Lo/PDGFRA-Hi) subgroup.
Where [3] appears, read: gene expression subgroup A (IHCneg, TP53 wt).

For the molecule `Cc1ccc(Nc2nccc(N(C)c3ccc4c(C)n(C)nc4c3)n2)cc1S(N)(=O)=O` [pazopanib, Pazopanib], in experiment [1] (31 of 38 patients, median follow-up 26.2 months), the “patients who had died (overall survival event)” value is on record as 82%. Further, the “patients with a progression-free survival event” value in experiment [1] (35 of 38 patients, median follow-up 26.2 months) stood at 92%. Further, the “median OS” value in experiment [1] (setting [2]) came to 1.7 months; in experiment [1] (setting [3]), 34.4 months; in experiment [1] (whole cohort, 38 patients), 9.5 months. For the same molecule, the “median PFS” value is reported as 1.4 months in experiment [1] (setting [2]); 12.8 months in experiment [1] (setting [3]); 6.4 months in experiment [1] (patients with partial response or stable disease); 3.7 months in experiment [1] (whole cohort, 38 patients, pazopanib 800 mg once daily). Besides, the “PFS HR, multivariable analysis” value in experiment [1] (F-Lo/P-Hi v. IHCneg, adjusted for clinico-pathological factors, 95% CI 3.86-40.72) was found to be 12.54; in experiment [1] (TP53 mutation v. wildtype, adjusted, 95% CI 1.45-10.86, p=0.007), 3.97. Also, the “OS HR, multivariable analysis” value is reported as 22.11 in experiment [1] (F-Lo/P-Hi v. IHCneg, adjusted, 95% CI 5.90-82.81) and 7.90 in experiment [1] (TP53 mutation v. wildtype, adjusted, 95% CI 2.56-24.41). Further, the “OS HR, univariate analysis” value in experiment [1] (FGFR1-Lo/PDGFRA-Hi v. IHCneg, 95% CI 2.51-17.91) was found to be 6.70; in experiment [1] (TP53 mutated v. wildtype, all 38 patients, 95% CI 1.15-5.51, P 0.02), 2.51. Also, the “PFS HR, univariate analysis” value in experiment [1] (FGFR1-Lo/PDGFRA-Hi v. IHCneg, 95% CI 3.58-25.94) is 9.64; in experiment [1] (TP53 mutated v. wildtype, all 38 patients, 95% CI 0.83-3.76, P 0.14) it was 1.77. Further, in experiment [1] (RECIST 1.1, 17/38), the “progression as best response” value amounted to 44.7%. In experiment [1] (RECIST 1.1, best response, 1/38), the objective radiological response is 2.6%. The stable disease in experiment [1] (RECIST 1.1, best response, 20/38) amounted to 52.6%. Further, the “PFS HR” value is recorded as 2.34 in experiment [1] (TP53 mutation v. wildtype in 31 IHCneg cases, 95% CI 1.03-5.34, p=0.04) and 0.27 in experiment [1] (subgroup A v. subgroup B or C, 22 IHCnegTP53 wt patients, 95% CI 0.09-0.85, p=0.02). The “OS HR” value came out at 3.47 in experiment [1] (TP53 mutation v. wildtype in 31 IHCneg cases, 95% CI 1.44-8.39, p=0.003); 2.08 in experiment [1] (high v. low PDGFRA expression, 95% CI 1.01-4.35, p=0.04); 0.20 in experiment [1] (subgroup A v. subgroup B or C, 22 IHCnegTP53 wt patients, 95% CI 0.04-0.96, p=0.03).
For the molecule `CNC(=O)c1cc(Oc2ccc(NC(=O)Nc3ccc(Cl)c(C(F)(F)F)c3)c(F)c2)ccn1` [regorafenib, Regorafenib], the “efficacy in STS subtypes” value with STS subtypes is listed as “efficacy in several STS subtypes but not adipocytic tumours”.
As for olaratumab, the OS benefit result in the experiment on advanced STS is “marked OS benefit”.

(Values after patent publication US12421556B2, “Materials and methods for stratifying and treating cancers” (The Institute of Cancer Research:Royal Cancer Hospital, priority 2017, dated 2025).)
